Experimental data as given in article PMC11882969 (Nature Communications, 2025).
Several values for one entry are separate records, joined by “and”; a condition that tells them apart may be missing. Identical values can stand only once. Like-named read-outs stand apart in the source and are kept apart here.

Molecular target: hCB1 (Homo sapiens, UniProt P21554)
Assay: bioSensAll ebBRET signaling profiling, hCB1
Assay type: cell-based
Design: host or cells: HEK293SL cells, transient PEI transfection
Settings: for Gi1 hCB1 response: Gi1 biosensor; for Gi1 hCB1 / GoB hCB1: single replicate values, FigS6a; for Emax [95% CI]: normalized to CP-55,940; for EC50: read-out: EC50 [95% CI]
[1] = Log [Compound] (M) -13, individual replicate values

Chain of hCB1 (P21554 whole entry): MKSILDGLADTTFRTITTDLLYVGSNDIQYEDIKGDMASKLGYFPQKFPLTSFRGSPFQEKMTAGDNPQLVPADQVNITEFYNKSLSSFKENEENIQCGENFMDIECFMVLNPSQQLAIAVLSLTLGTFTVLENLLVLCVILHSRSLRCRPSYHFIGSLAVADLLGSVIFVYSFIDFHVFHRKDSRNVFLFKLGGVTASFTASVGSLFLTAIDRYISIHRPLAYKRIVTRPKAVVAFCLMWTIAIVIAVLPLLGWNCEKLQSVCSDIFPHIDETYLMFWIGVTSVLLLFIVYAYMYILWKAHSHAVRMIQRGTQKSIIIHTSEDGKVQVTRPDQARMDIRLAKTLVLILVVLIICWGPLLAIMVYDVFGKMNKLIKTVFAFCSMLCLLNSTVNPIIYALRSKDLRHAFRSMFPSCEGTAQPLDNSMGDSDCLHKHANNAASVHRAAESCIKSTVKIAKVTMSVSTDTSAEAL

Compound: COc1cccc(C(NC(=O)c2cc(C)n(-c3cccc(C(F)(F)F)c3)n2)c2ccco2)c1 (stereo not shown) [‘1087]
- Gi1 hCB1 response (Log [Compound] (M) -4.22186): 111.515
- Gi1 hCB1 response (Log [Compound] (M) -4.63927): -38.2838
- Gi1 hCB1 response (Log [Compound] (M) -5.05788): -49.9669
- Gi1 hCB1 response (Log [Compound] (M) -5.47381): 11.0449
- Gi1 hCB1 response (Log [Compound] (M) -5.89285): -12.478
- Gi1 hCB1 response (Log [Compound] (M) -6.31878): -17.0885
- Gi1 hCB1 response (Log [Compound] (M) -6.72585): -9.994
- Gi1 hCB1 response (Log [Compound] (M) -7.14267): -10.3741
- Gi1 hCB1 response (Log [Compound] (M) -7.55284): 10.754
- Gi1 hCB1 response (Log [Compound] (M) -8): -2.496
- Gi1 hCB1 response (Log [Compound] (M) -8.22186): 59.7022
- Gi1 hCB1 response (Log [Compound] (M) -8.39794): 12.6788
- Gi1 hCB1 response (Log [Compound] (M) -8.68787): -1.377
- Gi1 hCB1 response (Log [Compound] (M) -9.15521): -24.5192
- Gi1 hCB1 response (Log [Compound] (M) -9.61989): 86.3361
- Gi1 hCB1 response (Log [Compound] (M) -10.0969): -14.3804
- Gi1 hCB1 response (Log [Compound] (M) -10.5529): -6.726
- Gi1 hCB1 response (Log [Compound] (M) -11.0177): 6.211
- Gi1 hCB1 response (Log [Compound] (M) -11.4949): 9.702
- Gi1 hCB1 response (Log [Compound] (M) -11.9208): -11.0679
- Gi1 hCB1 response (Log [Compound] (M) -12.3979): -4.555
- Gi1 hCB1 response (Log [Compound] (M) -12.8861): -5.652
- Gi1 hCB1 response [1]: -4.331 and 29.5096
- Gi1 hCB1 (Log [Compound] (M) -4.22186): -6.833
- GoB hCB1 (Log [Compound] (M) -4.22186): -8.4986
- Gi1 hCB1 (Log [Compound] (M) -4.63927): -6.864
- GoB hCB1 (Log [Compound] (M) -4.63927): -10.0272
- Gi1 hCB1 (Log [Compound] (M) -5.05788): -7.357
- GoB hCB1 (Log [Compound] (M) -5.05788): -7.545
- Gi1 hCB1 (Log [Compound] (M) -5.47381): -6.895
- GoB hCB1 (Log [Compound] (M) -5.47381): -9.02
- Gi1 hCB1 (Log [Compound] (M) -5.89285): -4.166
- GoB hCB1 (Log [Compound] (M) -5.89285): -5.891
- Gi1 hCB1 (Log [Compound] (M) -6.31878): -2.0693
- GoB hCB1 (Log [Compound] (M) -6.31878): -3.409
- Gi1 hCB1 (Log [Compound] (M) -6.72585): -1.1443
- GoB hCB1 (Log [Compound] (M) -6.72585): -0.5859
- Gi1 hCB1 (Log [Compound] (M) -7.14267): 2.34
- GoB hCB1 (Log [Compound] (M) -7.14267): -0.6579
- Gi1 hCB1 (Log [Compound] (M) -7.55284): 3.064
- GoB hCB1 (Log [Compound] (M) -7.55284): 2.687
- Gi1 hCB1 (Log [Compound] (M) -8): 2.926
- GoB hCB1 (Log [Compound] (M) -8): 1.8778
- Gi1 hCB1 (Log [Compound] (M) -8.22186): 2.463
- GoB hCB1 (Log [Compound] (M) -8.22186): -2.043
- Gi1 hCB1 (Log [Compound] (M) -8.39794): -1.175
- GoB hCB1 (Log [Compound] (M) -8.39794): 1.572
- Gi1 hCB1 (Log [Compound] (M) -8.68787): 1.6
- GoB hCB1 (Log [Compound] (M) -8.68787): -4.093
- Gi1 hCB1 (Log [Compound] (M) -9.15521): 2.463
- GoB hCB1 (Log [Compound] (M) -9.15521): -0.01046
- Gi1 hCB1 (Log [Compound] (M) -9.61989): 1.8311
- GoB hCB1 (Log [Compound] (M) -9.61989): 0.3672
- Gi1 hCB1 (Log [Compound] (M) -10.0969): 1.353
- GoB hCB1 (Log [Compound] (M) -10.0969): 4.054
- Gi1 hCB1 (Log [Compound] (M) -10.5529): 3.666
- GoB hCB1 (Log [Compound] (M) -10.5529): 3.3884
- Gi1 hCB1 (Log [Compound] (M) -11.0177): 2.525
- GoB hCB1 (Log [Compound] (M) -11.0177): 3.856
- Gi1 hCB1 (Log [Compound] (M) -11.4949): 4.128
- GoB hCB1 (Log [Compound] (M) -11.4949): 2.507
- Gi1 hCB1 (Log [Compound] (M) -11.9208): 3.265
- GoB hCB1 (Log [Compound] (M) -11.9208): 1.033
- Gi1 hCB1 (Log [Compound] (M) -12.3979): 2.386
- GoB hCB1 (Log [Compound] (M) -12.3979): 3.442
- Gi1 hCB1 (Log [Compound] (M) -12.8861): 2.001
- GoB hCB1 (Log [Compound] (M) -12.8861): 2.363
- Gi1 hCB1 (Log [Compound] (M) -13): 2.402 and 0.3203
- GoB hCB1 (Log [Compound] (M) -13): 4.845 and 3.406

Compound: Cc1cc(C(=O)N2CC3(CCC3)[C@H]2[C@@H]2CCCO2)nn1-c1cccc(C(F)(F)F)c1 [‘5490]
- Gi1 hCB1 response (Log [Compound] (M) -4.22186): 126.936
- Gi1 hCB1 response (Log [Compound] (M) -4.63927): 115.566
- Gi1 hCB1 response (Log [Compound] (M) -5.47381): 67.3119
- Gi1 hCB1 response (Log [Compound] (M) -5.89285): 63.8428
- Gi1 hCB1 response (Log [Compound] (M) -6.31878): 33.6054
- Gi1 hCB1 response (Log [Compound] (M) -6.72585): 15.275
- Gi1 hCB1 response (Log [Compound] (M) -7.14267): 11.8954
- Gi1 hCB1 response (Log [Compound] (M) -7.55284): 0.9509
- Gi1 hCB1 response (Log [Compound] (M) -8): 4.733
- Gi1 hCB1 response (Log [Compound] (M) -8.22186): -9.009
- Gi1 hCB1 response (Log [Compound] (M) -8.39794): 1.018
- Gi1 hCB1 response (Log [Compound] (M) -8.68787): -1.578
- Gi1 hCB1 response (Log [Compound] (M) -9.15521): -18.3419
- Gi1 hCB1 response (Log [Compound] (M) -9.61989): 1.018
- Gi1 hCB1 response (Log [Compound] (M) -10.0969): 0.1452
- Gi1 hCB1 response (Log [Compound] (M) -10.5529): 4.89
- Gi1 hCB1 response (Log [Compound] (M) -11.0177): 13.5964
- Gi1 hCB1 response (Log [Compound] (M) -11.4949): -2.608
- Gi1 hCB1 response (Log [Compound] (M) -11.9208): 1.712
- Gi1 hCB1 response (Log [Compound] (M) -12.3979): -1.959
- Gi1 hCB1 response (Log [Compound] (M) -12.8861): -5.584
- Gi1 hCB1 response [1]: 3.39 and 3.458
- Gi1 hCB1 (Log [Compound] (M) -4.22186): 94.6851
- GoB hCB1 (Log [Compound] (M) -4.22186): 96.1825
- Gi1 hCB1 (Log [Compound] (M) -4.63927): 84.6644
- GoB hCB1 (Log [Compound] (M) -4.63927): 79.6378
- Gi1 hCB1 (Log [Compound] (M) -5.05788): 72.2386
- GoB hCB1 (Log [Compound] (M) -5.05788): 59.1548
- Gi1 hCB1 (Log [Compound] (M) -5.47381): 56.452
- GoB hCB1 (Log [Compound] (M) -5.47381): 52.9325
- Gi1 hCB1 (Log [Compound] (M) -5.89285): 36.6417
- GoB hCB1 (Log [Compound] (M) -5.89285): 40.0205
- Gi1 hCB1 (Log [Compound] (M) -6.31878): 21.1018
- GoB hCB1 (Log [Compound] (M) -6.31878): 23.8534
- Gi1 hCB1 (Log [Compound] (M) -6.72585): 10.5569
- GoB hCB1 (Log [Compound] (M) -6.72585): 12.0564
- Gi1 hCB1 (Log [Compound] (M) -7.14267): 5.469
- GoB hCB1 (Log [Compound] (M) -7.14267): 9.719
- Gi1 hCB1 (Log [Compound] (M) -7.55284): 7.104
- GoB hCB1 (Log [Compound] (M) -7.55284): 4.971
- Gi1 hCB1 (Log [Compound] (M) -8): 4.236
- GoB hCB1 (Log [Compound] (M) -8): 4.953
- Gi1 hCB1 (Log [Compound] (M) -8.22186): 2.062
- GoB hCB1 (Log [Compound] (M) -8.22186): 0.1334
- Gi1 hCB1 (Log [Compound] (M) -8.39794): 3.018
- GoB hCB1 (Log [Compound] (M) -8.39794): 6.805
- Gi1 hCB1 (Log [Compound] (M) -8.68787): 2.71
- GoB hCB1 (Log [Compound] (M) -8.68787): -2.061
- Gi1 hCB1 (Log [Compound] (M) -9.15521): 2.078
- GoB hCB1 (Log [Compound] (M) -9.15521): 0.565
- Gi1 hCB1 (Log [Compound] (M) -9.61989): 1.014
- GoB hCB1 (Log [Compound] (M) -9.61989): 0.7988
- Gi1 hCB1 (Log [Compound] (M) -10.0969): 3.712
- GoB hCB1 (Log [Compound] (M) -10.0969): 2.4173
- Gi1 hCB1 (Log [Compound] (M) -10.5529): 2.602
- GoB hCB1 (Log [Compound] (M) -10.5529): 1.752
- Gi1 hCB1 (Log [Compound] (M) -11.0177): 1.5536
- GoB hCB1 (Log [Compound] (M) -11.0177): 4.395
- Gi1 hCB1 (Log [Compound] (M) -11.4949): 3.327
- GoB hCB1 (Log [Compound] (M) -11.4949): 4.324
- Gi1 hCB1 (Log [Compound] (M) -11.9208): 2.772
- GoB hCB1 (Log [Compound] (M) -11.9208): 3.352
- Gi1 hCB1 (Log [Compound] (M) -12.3979): 2.124
- GoB hCB1 (Log [Compound] (M) -12.3979): 2.741
- Gi1 hCB1 (Log [Compound] (M) -12.8861): 2.556
- GoB hCB1 (Log [Compound] (M) -12.8861): 2.3094
- Gi1 hCB1 (Log [Compound] (M) -13): 3.496 and 2.864
- GoB hCB1 (Log [Compound] (M) -13): 2.327 and 3.748
- pEC50 [95% CI] (hCB1 Gi1): 5.6 [5.5 – 5.6]
- Emax [95% CI] (hCB1 Gi1): 98 [94 – 102]
- pEC50 [95% CI] (hCB1 GoB): 5.2 [4.8 – 5.6]
- Emax [95% CI] (hCB1 GoB): 118 [94 – 143]
- pEC50 [95% CI] (hCB1 Gz): 5.6 [5.2 – 6.1]
- EC50 (hCB1 Gi1): 2800 nM
- EC50 (hCB1 GoB): 6730 nM
- EC50 (hCB1 Gz): 2470 nM
